According to patent US6436986B1, “Glucocorticoid receptor antagonists for treatment of diabetes” (Abbott Laboratories, priority 1999, dated 2002):

- melting point: 217 to 218 °C
Compound: COc1cccc2c1-c1cccc(C)c1C(NS(C)(=O)=O)(c1cccc(C(F)(F)F)c1)O2 (stereo not shown) [Example 1, N-[1-methoxy-7-methyl-6-[3-(trifluoromethyl)phenyl]-6H-dibenzo[b,d]pyran-6-yl]methanesulfonamide]
